In US12415803B2, “Fused imidazopyridines as reversible inhibitors of Brutons Tyrosine Kinase (BTK)” (Merck Patent GmbH, priority 2018, dated 2025):
Values joined by “and” are separate entries in the source; they are usually repeats but may differ in a detail not shown here. Equal values may be shown once.

Legend:
[1] = molecular target: full-length human BTK (Homo sapiens (Human), UniProt Q06187); test: BTK IC50 Enzyme Assay (microfluidic off-chip mobility shift kinase assay); type: biochemical; conditions: Btk Enzymatic IC50 Assay, 90 min at 27 C;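 further: Read-out separates phosphorylated peptide product from substrate by their charge-to-mass difference, with IC50 fitted from log inhibitor concentration against percent enzyme activity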
full-length human BTK, sequence (Q06187 whole entry): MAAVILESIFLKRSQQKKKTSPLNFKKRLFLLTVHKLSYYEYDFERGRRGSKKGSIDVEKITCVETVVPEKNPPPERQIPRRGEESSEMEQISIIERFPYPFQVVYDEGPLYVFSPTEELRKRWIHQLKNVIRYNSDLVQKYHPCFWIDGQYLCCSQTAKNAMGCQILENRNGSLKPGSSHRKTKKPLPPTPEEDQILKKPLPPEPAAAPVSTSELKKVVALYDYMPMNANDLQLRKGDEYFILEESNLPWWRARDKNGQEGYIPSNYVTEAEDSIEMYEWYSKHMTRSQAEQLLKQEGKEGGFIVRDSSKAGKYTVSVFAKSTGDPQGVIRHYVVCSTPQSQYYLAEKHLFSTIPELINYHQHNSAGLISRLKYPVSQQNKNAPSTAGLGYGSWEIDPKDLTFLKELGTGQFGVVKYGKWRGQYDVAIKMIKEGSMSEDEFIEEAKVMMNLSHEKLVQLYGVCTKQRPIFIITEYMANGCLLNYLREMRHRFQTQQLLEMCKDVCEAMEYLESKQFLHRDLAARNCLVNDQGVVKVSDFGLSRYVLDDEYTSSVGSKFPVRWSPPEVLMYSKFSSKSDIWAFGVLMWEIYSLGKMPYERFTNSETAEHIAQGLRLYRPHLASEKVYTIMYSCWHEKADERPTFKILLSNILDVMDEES

[2] = molecular target: T1, Btk (Homo sapiens (Human), UniProt Q06187); test: Btk PBMC IC50 Cell Assay (anti-IgM-induced CD69 expression on B cells); type: cell-based; conditions: anti-IgM-induced CD69 expression on CD19 positive cells in human PBMCs;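 further: freshly isolated human PBMCs, IC50 from concentration-response of the share of CD19+ cells expressing CD69 after anti-IgM BCR stimulation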
T1 sequence (Q06187 whole entry): as above

[3] = molecular target: T1, Btk; test: Time Dependent Human Whole Blood IC50 Assay; type: cell-based; conditions: read-out: Assay C (IC50)

Row | SMILES | IC50 [1] | IC50 [2] | IC50 [3]
1 | Cc1nn(C)c(C)c1-c1nc2c(-c3ccc4c(c3)CCCCC4NC(=O)c3cc(C(C)(C)C)on3)ccnc2[nH]1 (stereo not shown) [Compound 70] | 1 to 10 nM | 1 to 10 nM | 10 to 100 nM
2 | CC(C)n1cc(-c2nc3c(-c4ccc5c(c4)CCCC[C@H]5NC(=O)c4cc(C(C)(C)C)on4)ccnc3[nH]2)cn1 [Compound 92] | < 1 nM | 1 to 10 nM | 10 to 100 nM
3 | CC(C)n1cc(-c2nc3c(-c4ccc5c(c4)CCCCC5NC(=O)c4cc(C(C)(C)C)on4)ccnc3[nH]2)cn1 (stereo not shown) [Compound 91, 5-tert-butyl-N-(2-{2-[1-(propan-2-yl)-1H-pyrazol-4-yl]-3H-imidazo[4,5-b]pyridin-7-yl}-6,7,8,9-tetrahydro-5H-benzo[7]annulen-5-yl)-1,2-oxazole-3-carboxamide] | < 1 nM | 1 to 10 nM | 1 to 10 nM
4 | Cc1c(-c2nc3nccc(-c4ccc5c(c4)CCCC[C@H]5NC(=O)c4nnc(C(C)(C)C)o4)c3[nH]2)cnn1C1CCOCC1 [Compound 79, 5-tert-butyl-N-[(5R)-2-{2-[5-methyl-1-(oxan-4-yl)-1H-pyrazol-4-yl]-1H-imidazo[4,5-b]pyridin-7-yl}-6,7,8,9-tetrahydro-5H-benzo[7]annulen-5-yl]-1,3,4-oxadiazole-2-carboxamide] | < 1 nM | 1 to 10 nM | 10 to 100 nM and 1 to 10 nM
5 | Cc1nn(C(C)C)c(C)c1-c1nc2c(-c3ccc4c(c3)CCCC[C@H]4NC(=O)c3noc(C4(C)CC4)n3)ccnc2[nH]1 [Compound 33, 5-(1-Methyl-cyclopropyl)-[1,2,4]oxadiazole-3-carboxylic acid {(R)-2-[2-(1-isopropyl-3,5-dimethyl-1H-pyrazol-4-yl)-3H-imidazo[4,5-b]pyridin-7-yl]-6,7,8,9-tetrahydro-5H-benzocyclohepten-5-yl}-amide] | < 1 nM | 1 to 10 nM | 1 to 10 nM
6 | Cc1c(-c2nc3c(-c4ccc5c(c4)CCCC5NC(=O)c4nc(C5(C)CC5)no4)ccnc3[nH]2)cnn1C1CCOCC1 (stereo not shown) [Compound 148, 3-(1-Methyl-cyclopropyl)-[1,2,4]oxadiazole-5-carboxylic acid (6-{2-[5-methyl-1-(tetrahydro-pyran-4-yl)-1H-pyrazol-4-yl]-3H-imidazo[4,5-b]pyridin-7-yl}-1,2,3,4-tetrahydro-naphthalen-1-yl)-amide] | < 1 nM | 10 to 100 nM | 10 to 100 nM
7 | CCc1cc(-c2nc3c(-c4ccc5c(c4)CCCCC5NC(=O)c4nc(C(C)(C)C)no4)ccnc3[nH]2)nn1C (stereo not shown) [Compound 133, 3-tert-Butyl-[1,2,4]oxadiazole-5-carboxylic acid {2-[2-(5-ethyl-1-methyl-1H-pyrazol-3-yl)-3H-imidazo[4,5-b]pyridin-7-yl]-6,7,8,9-tetrahydro-5H-benzocyclohepten-5-yl}-amide] | < 1 nM | 1 to 10 nM | 1 to 10 nM
8 | Cc1nn(C(C)C)cc1-c1nc2nccc(-c3ccc4c(c3)CCCC[C@H]4NC(=O)c3nnc(C(C)(C)C)o3)c2[nH]1 [Compound 78, 5-tert-butyl-N-[(5R)-2-{2-[3-methyl-1-(propan-2-yl)-1H-pyrazol-4-yl]-1H-imidazo[4,5-b]pyridin-7-yl}-6,7,8,9-tetrahydro-5H-benzo[7]annulen-5-yl]-1,3,4-oxadiazole-2-carboxamide] | < 1 nM | 1 to 10 nM | 1 to 10 nM
9 | Cc1nn(C(C)C)cc1-c1nc2c(-c3ccc4c(c3)CCCC[C@@H]4NC(=O)c3nc(C4(C)CC4)no3)ccnc2[nH]1 [Compound 60, 3-(1-Methyl-cyclopropyl)-[1,2,4]oxadiazole-5-carboxylic acid {(S)-2-[2-(1-isopropyl-3-methyl-1H-pyrazol-4-yl)-3H-imidazo[4,5-b]pyridin-7-yl]-6,7,8,9-tetrahydro-5H-benzocyclohepten-5-yl}-amide] | 1 to 10 nM | 10 to 100 nM | –
10 | Cn1cc(-c2nc3nccc(-c4ccc5c(c4)CCCC[C@H]5NC(=O)N4CC(OC(C)(C)C)C4)c3[nH]2)cn1 [Compound 51, 3-tert-Butoxy-azetidine-1-carboxylic acid {(R)-2-[2-(1-methyl-1H-pyrazol-4-yl)-3H-imidazo[4,5-b]pyridin-7-yl]-6,7,8,9-tetrahydro-5H-benzocyclohepten-5-yl}-amide] | < 1 nM | 1 to 10 nM | –
11 | Cc1c(-c2nc3c(-c4ccc5c(c4)CCC[C@H]5NC(=O)c4noc(C5(C)CC5)n4)ccnc3[nH]2)cnn1C1CCOCC1 [Compound 162, 5-(1-Methyl-cyclopropyl)-[1,2,4]oxadiazole-3-carboxylic acid ((R)-6-{2-[5-methyl-1-(tetrahydro-pyran-4-yl)-1H-pyrazol-4-yl]-3H-imidazo[4,5-b]pyridin-7-yl}-1,2,3,4-tetrahydro-naphthalen-1-yl)-amide] | < 1 nM | 1 to 10 nM | –
12 | Cc1nn(C)c(C)c1-c1nc2c(-c3ccc4c(c3)CCCC[C@@H]4NC(=O)c3noc(C(C)(C)C)n3)ccnc2[nH]1 [Compound 10, 5-tert-Butyl-[1,2,4]oxadiazole-3-carboxylic acid {(S)-2-[2-(1,3,5-trimethyl-1H-pyrazol-4-yl)-3H-imidazo[4,5-b]pyridin-7-yl]-6,7,8,9-tetrahydro-5H-benzocyclohepten-5-yl}-amide] | < 1 nM | 1 to 10 nM | –
13 | Cc1nn(C(C)C)c(C)c1-c1nc2c(-c3ccc4c(c3)CCCC[C@@H]4NC(=O)c3noc(C4(C)CC4)n3)ccnc2[nH]1 [Compound 34, 5-(1-Methyl-cyclopropyl)-[1,2,4]oxadiazole-3-carboxylic acid {(S)-2-[2-(1-isopropyl-3,5-dimethyl-1H-pyrazol-4-yl)-3H-imidazo[4,5-b]pyridin-7-yl]-6,7,8,9-tetrahydro-5H-benzocyclohepten-5-yl}-amide] | 1 to 10 nM | > 100 nM | –
14 | Cc1nn(C(C)C)c(C)c1-c1nc2c(-c3ccc4c(c3)CCCCC4NC(=O)c3noc(C4(C)CC4)n3)ccnc2[nH]1 (stereo not shown) [Compound 32, 5-(1-Methyl-cyclopropyl)-[1,2,4]oxadiazole-3-carboxylic acid {2-[2-(1-isopropyl-3,5-dimethyl-1H-pyrazol-4-yl)-3H-imidazo[4,5-b]pyridin-7-yl]-6,7,8,9-tetrahydro-5H-benzocyclohepten-5-yl}-amide] | < 1 nM | 1 to 10 nM | –

Results, then the compound that gave them:

Row | IC50 [1] | IC50 [2] | IC50 [3] | SMILES
15 | < 1 nM | 1 to 10 nM | 1 to 10 nM | Cc1cc(-c2nc3c(-c4ccc5c(c4)CCCC[C@H]5NC(=O)c4nnc(C(C)(C)C)o4)ccnc3[nH]2)nn1C [Compound 153, 5-tert-Butyl-[1,3,4]oxadiazole-2-carboxylic acid {(R)-2-[2-(1,5-dimethyl-1H-pyrazol-3-yl)-3H-imidazo[4,5-b]pyridin-7-yl]-6,7,8,9-tetrahydro-5H-benzocyclohepten-5-yl}-amide]
16 | 1 to 10 nM | 1 to 10 nM | 10 to 100 nM | Cc1nn(C)c(C)c1-c1nc2c(-c3ccc4c(c3)CCCCC4NC(=O)c3nnc(C(C)(C)C)o3)ccnc2[nH]1 (stereo not shown) [Compound 116, 5-tert-Butyl-[1,3,4]oxadiazole-2-carboxylic acid {2-[2-(1,3,5-trimethyl-1H-pyrazol-4-yl)-3H-imidazo[4,5-b]pyridin-7-yl]-6,7,8,9-tetrahydro-5H-benzocyclohepten-5-yl}-amide]
17 | < 1 nM | 1 to 10 nM | 10 to 100 nM | CCc1cc(-c2nc3c(-c4ccc5c(c4)CCCCC5NC(=O)c4nnc(C(C)(C)C)o4)ccnc3[nH]2)nn1C (stereo not shown) [Compound 131, 5-tert-Butyl-[1,3,4]oxadiazole-2-carboxylic acid {2-[2-(5-ethyl-1-methyl-1H-pyrazol-3-yl)-3H-imidazo[4,5-b]pyridin-7-yl]-6,7,8,9-tetrahydro-5H-benzocyclohepten-5-yl}-amide]
18 | 1 to 10 nM | > 100 nM | – | Cc1nn(C)c(C)c1-c1nc2c(-c3ccc4c(c3)CCCC[C@@H]4NC(=O)c3nnc(C(C)(C)C)o3)ccnc2[nH]1 [Compound 122, 5-tert-Butyl-[1,3,4]oxadiazole-2-carboxylic acid {(S)-2-[2-(1,3,5-trimethyl-1H-pyrazol-4-yl)-3H-imidazo[4,5-b]pyridin-7-yl]-6,7,8,9-tetrahydro-5H-benzocyclohepten-5-yl}-amide]
19 | < 1 nM | 1 to 10 nM | – | Cn1cc(-c2nc3c(-c4ccc5c(c4)OCCCC5NC(=O)c4noc(C(C)(C)C)n4)ccnc3[nH]2)cn1 (stereo not shown) [Compound 37, 5-tert-Butyl-[1,2,4]oxadiazole-3-carboxylic acid {8-[2-(1-methyl-1H-pyrazol-4-yl)-3H-imidazo[4,5-b]pyridin-7-yl]-2,3,4,5-tetrahydro-benzo[b]oxepin-5-yl}-amide]
20 | 1 to 10 nM | > 100 nM | – | Cn1cc(-c2nc3c(-c4ccc5c(c4)CCCC[C@H]5NC(=O)c4nnc(C(C)(C)C)o4)ccnc3[nH]2)cn1 [Compound 48, 5-tert-Butyl-[1,3,4]oxadiazole-2-carboxylic acid {(R)-2-[2-(1-methyl-1H-pyrazol-4-yl)-3H-imidazo[4,5-b]pyridin-7-yl]-6,7,8,9-tetrahydro-5H-benzocyclohepten-5-yl}-amide]
21 | < 1 nM | 1 to 10 nM | – | Cn1cc(-c2nc3c(-c4ccc5c(c4)CCCC[C@H]5NC(=O)c4noc(C(C)(C)C)n4)ccnc3[nH]2)cn1 [Compound 52, 5-tert-Butyl-[1,2,4]oxadiazole-3-carboxylic acid {(R)-2-[2-(1-methyl-1H-pyrazol-4-yl)-3H-imidazo[4,5-b]pyridin-7-yl]-6,7,8,9-tetrahydro-5H-benzocyclohepten-5-yl}-amide]
22 | < 1 nM | 1 to 10 nM | – | Cn1cc(-c2nc3c(-c4ccc5c(c4)OCCC[C@@H]5NC(=O)c4nc(C(C)(C)C)no4)ccnc3[nH]2)cn1 [Compound 45, 3-tert-Butyl-[1,2,4]oxadiazole-5-carboxylic acid {(S)-8-[2-(1-methyl-1H-pyrazol-4-yl)-3H-imidazo[4,5-b]pyridin-7-yl]-2,3,4,5-tetrahydro-benzo[b]oxepin-5-yl}-amide]
